Test results: patent US10919911B2, “Tricyclic ASK1 inhibitors” (Terns, Inc., priority 2018, dated 2021)

Target: ASK1 kinase (Homo sapiens (Human), UniProt Q99683)
Assay: RBC Kinase Assay (33P-ATP radiometric, myelin basic protein substrate)
Type: biochemical
Settings: 20 ng ASK1 kinase, MBP substrate, 120 min at room temperature, 1% DMSO
Protocol: Example B1. RBC Kinase Assay Protocol
Base Reaction buffer: 20 mM Hepes (pH 7.5), 10 mM MgCl2, 1 mM EGTA, 0.02% Brij35, 0.02 mg/ml BSA, 0.1 mM Na3VO4, 2 mM DTT, and 1% DMSO were used for the assay.
Myelin base protein (MPB) was prepared in freshly prepared Base Reaction Buffer. 20 ng of ASK1 kinase was delivered into the substrate solution and gently mixed. Compounds in DMSO were delivered into the kinase reaction mixture (final DMSO concentration 1%). Commercially available 33P-ATP was delivered into the reaction mixture to initiate the reaction. The kinase reaction was incubated for 120 min. at room temperature. Reactions were spotted onto P81 ion exchange paper (Whatman #3698-915). Filters were washed extensively in 0.75% Phosphoric acid. Radioactivity on filters was read, and IC50 values were determined.

ASK1 kinase, sequence (Q99683 whole entry): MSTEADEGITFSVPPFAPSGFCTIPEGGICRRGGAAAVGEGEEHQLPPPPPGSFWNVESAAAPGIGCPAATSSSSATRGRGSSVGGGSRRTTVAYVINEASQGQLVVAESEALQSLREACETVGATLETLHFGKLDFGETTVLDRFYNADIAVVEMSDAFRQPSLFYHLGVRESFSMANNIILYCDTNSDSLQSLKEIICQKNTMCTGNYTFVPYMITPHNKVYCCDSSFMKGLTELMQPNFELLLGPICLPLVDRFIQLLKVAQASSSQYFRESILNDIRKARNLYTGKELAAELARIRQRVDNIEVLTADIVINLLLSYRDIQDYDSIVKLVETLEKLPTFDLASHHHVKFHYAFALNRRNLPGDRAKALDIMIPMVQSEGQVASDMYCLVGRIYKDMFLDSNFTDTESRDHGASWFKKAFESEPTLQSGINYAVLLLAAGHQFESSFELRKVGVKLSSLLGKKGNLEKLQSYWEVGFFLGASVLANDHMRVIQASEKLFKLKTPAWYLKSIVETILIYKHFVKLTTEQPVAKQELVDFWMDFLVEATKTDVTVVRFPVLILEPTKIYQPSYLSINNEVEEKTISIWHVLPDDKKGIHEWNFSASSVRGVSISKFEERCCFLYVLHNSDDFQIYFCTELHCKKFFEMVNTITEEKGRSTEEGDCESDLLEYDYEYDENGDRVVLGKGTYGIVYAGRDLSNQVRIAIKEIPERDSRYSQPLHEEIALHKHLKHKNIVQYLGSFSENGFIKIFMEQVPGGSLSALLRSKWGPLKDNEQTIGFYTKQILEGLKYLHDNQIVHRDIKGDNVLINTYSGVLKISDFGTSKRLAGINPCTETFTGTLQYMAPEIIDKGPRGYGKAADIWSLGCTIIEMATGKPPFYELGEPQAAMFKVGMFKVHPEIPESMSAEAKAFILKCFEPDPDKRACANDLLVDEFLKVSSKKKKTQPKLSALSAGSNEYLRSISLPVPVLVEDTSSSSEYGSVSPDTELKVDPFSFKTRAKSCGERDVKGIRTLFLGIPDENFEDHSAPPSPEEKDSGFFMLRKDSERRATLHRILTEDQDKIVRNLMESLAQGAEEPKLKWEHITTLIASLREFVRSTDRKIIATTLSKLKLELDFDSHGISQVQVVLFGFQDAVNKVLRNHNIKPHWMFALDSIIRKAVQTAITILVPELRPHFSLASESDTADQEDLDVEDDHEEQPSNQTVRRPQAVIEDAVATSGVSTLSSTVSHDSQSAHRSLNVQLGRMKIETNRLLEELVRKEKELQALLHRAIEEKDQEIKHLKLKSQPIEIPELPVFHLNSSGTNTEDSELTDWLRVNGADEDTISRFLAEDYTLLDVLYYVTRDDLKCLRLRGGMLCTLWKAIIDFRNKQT

Compound	IC50 [nM]
O=C(Nc1cccc2c1OC[C@@H](CF)n1nnnc1-2)c1cc(-n2cnc(C3CC3)c2)ccn1 [Example 31, (S)-4-(4-cyclopropyl-1H-imidazol-1-yl)-N-(5-(fluoromethyl)-5,6-dihydrobenzo[f]tetrazolo[1,5-d][1,4]oxazepin-8-yl)picolinamide]	5.7
CC1(C)COc2c(NC(=O)c3cc(-n4cnc(C5CC5)c4)c(N4CCOCC4)cn3)cccc2-c2nncn21 [Example 36, 4-(4-cyclopropyl-1H-imidazol-1-yl)-N-(5,5-dimethyl-5,6-dihydrobenzo[f][1,2,4]triazolo[4,3-d][1,4]oxazepin-8-yl)-5-morpholinopicolinamide]	5.6
C[C@@H]1COc2c(NC(=O)c3cc(-n4cnc(C5CC5)c4)c(N4CCOCC4)cn3)cccc2-c2nncn21 [Example 39, (R)-4-(4-cyclopropyl-1H-imidazol-1-yl)-N-(5-methyl-5,6-dihydrobenzo[f][1,2,4]triazolo[4,3-d][1,4]oxazepin-8-yl)-5-morpholinopicolinamide]	5.5
Cc1cc(F)c(C(=O)Nc2cccc3c2OCCn2cncc2-3)cc1-n1cnc(C2CC2)c1 [Example 41, 5-(4-cyclopropyl-1H-imidazol-1-yl)-N-(5,6-dihydrobenzo[f]imidazo[1,5-d][1,4]oxazepin-8-yl)-2-fluoro-4-methylbenzamide]	5.7
Cc1cc(F)c(C(=O)Nc2cccc3c2O[C@@H](C)Cn2nnnc2-3)cc1-n1cnc(C2CC2)c1 [Example 42, (S)-5-(4-cyclopropyl-1H-imidazol-1-yl)-2-fluoro-4-methyl-N-(6-methyl-5,6-dihydrobenzo[f]tetrazolo[1,5-d][1,4]oxazepin-8-yl)benzamide]	16.8
O=C(Nc1cccc2c1OCCn1cnnc1-2)c1cc(-n2cnc(C3CC3)c2)c(N2CCOCC2)cn1 [Example 44, 4-(4-cyclopropyl-1H-imidazol-1-yl)-N-(5,6-dihydrobenzo[f][1,2,4]triazolo[4,3-d][1,4]oxazepin-8-yl)-5-morpholinopicolinamide]	15.6
Cc1cc(F)c(C(=O)Nc2cccc3c2OC2(CC2)Cn2cnnc2-3)cc1-n1cnc(C2CC2)c1 [Example 45, 5-(4-cyclopropyl-1H-imidazol-1-yl)-2-fluoro-4-methyl-N-(5H-spiro[benzo[f][1,2,4]triazolo[4,3-d][1,4]oxazepine-6,1′-cyclopropan]-8-yl)benzamide]	5.3
Cc1cc(F)c(C(=O)Nc2cccc3c2OC[C@H](C)n2cncc2-3)cc1-n1cnc(C2CC2)c1 [Example 46, (S)-5-(4-cyclopropyl-1H-imidazol-1-yl)-2-fluoro-4-methyl-N-(5-methyl-5,6-dihydrobenzo[f]imidazo[1,5-d][1,4]oxazepin-8-yl)benzamide]	15.1
Cc1cc(F)c(C(=O)Nc2cccc3c2OC[C@@H](C)n2cncc2-3)cc1-n1cnc(C2CC2)c1 [Example 47, (R)-5-(4-cyclopropyl-1H-imidazol-1-yl)-2-fluoro-4-methyl-N-(5-methyl-5,6-dihydrobenzo[f]imidazo[1,5-d][1,4]oxazepin-8-yl)benzamide]	6.8
Cc1cc(F)c(C(=O)Nc2cccc3c2OC[C@@H]([C@H](C)O)n2nnnc2-3)cc1-n1cnc(C2CC2)c1 [Example 48, 5-(4-cyclopropyl-1H-imidazol-1-yl)-2-fluoro-N—((S)-5-((S)-1-hydroxyethyl)-5,6-dihydrobenzo[f]tetrazolo[1,5-d][1,4]oxazepin-8-yl)-4-methylbenzamide]	5.1
Cc1cc(F)c(C(=O)Nc2cccc3c2OCCn2cnc(C)c2-3)cc1-n1cnc(C2CC2)c1 [Example 51, 5-(4-cyclopropyl-1H-imidazol-1-yl)-2-fluoro-4-methyl-N-(1-methyl-5,6-dihydrobenzo[f]imidazo[1,5-d][1,4]oxazepin-8-yl)benzamide]	307
C[C@@H]1Cn2cnnc2-c2cccc(NC(=O)c3cc(-n4cnc(C5CC5)c4)ccn3)c2O1 [Example 52, (R)-4-(4-cyclopropyl-1H-imidazol-1-yl)-N-(6-methyl-5,6-dihydrobenzo[f][1,2,4]triazolo[4,3-d][1,4]oxazepin-8-yl)picolinamide]	5.9
Cc1cc(F)c(C(=O)Nc2cccc3c2OC[C@@H]([C@@H](C)O)n2nnnc2-3)cc1-n1cnc(C2CC2)c1 [Example 53, 5-(4-cyclopropyl-1H-imidazol-1-yl)-2-fluoro-N—((S)-5-((R)-1-hydroxyethyl)-5,6-dihydrobenzo[f]tetrazolo[1,5-d][1,4]oxazepin-8-yl)-4-methylbenzamide]	6.4
CN1CCN(c2cnc(C(=O)Nc3cccc4c3OCCn3nnnc3-4)cc2-n2cnc(C3CC3)c2)CC1 [Example 54, 4-(4-cyclopropyl-1H-imidazol-1-yl)-N-(5,6-dihydrobenzo[f]tetrazolo[1,5-d][1,4]oxazepin-8-yl)-5-(4-methylpiperazin-1-yl)picolinamide]	5.9
O=C(Nc1cccc2c1OCCn1cnnc1-2)c1cc(-n2cnc(C3CC3)c2)ccn1 [Example 56, 4-(4-cyclopropyl-1H-imidazol-1-yl)-N-(5,6-dihydrobenzo[f][1,2,4]triazolo[4,3-d][1,4]oxazepin-8-yl)picolinamide]	35.2

Now those with a lower IC50, led by results:

IC50 [nM]	Compound
4.1	O=C(Nc1cccc2c1OC[C@@H](CF)n1cnnc1-2)c1cc(-n2cnc(C3CC3)c2)ccn1 [Example 29, (S)-4-(4-cyclopropyl-1H-imidazol-1-yl)-N-(5-(fluoromethyl)-5,6-dihydrobenzo[f][1,2,4]triazolo[4,3-d][1,4]oxazepin-8-yl)picolinamide]
4.5	Cc1cc(F)c(C(=O)Nc2cccc3c2OC[C@@H](CF)n2nnnc2-3)cc1-n1cnc(C2CC2)c1 [Example 30, (S)-5-(4-cyclopropyl-1H-imidazol-1-yl)-2-fluoro-N-(5-(fluoromethyl)-5,6-dihydrobenzo[f]tetrazolo[1,5-d][1,4]oxazepin-8-yl)-4-methylbenzamide]
3.1	Cc1cc(F)c(C(=O)Nc2cccc3c2OC[C@H](CF)n2cnnc2-3)cc1-n1cnc(C2CC2)c1 [Example 32, (R)-5-(4-cyclopropyl-1H-imidazol-1-yl)-2-fluoro-N-(5-(fluoromethyl)-5,6-dihydrobenzo[f][1,2,4]triazolo[4,3-d][1,4]oxazepin-8-yl)-4-methylbenzamide]
4.1	O=C(Nc1cccc2c1OC[C@H](CF)n1cnnc1-2)c1cc(-n2cnc(C3CC3)c2)ccn1 [Example 33, (R)-4-(4-cyclopropyl-1H-imidazol-1-yl)-N-(5-(fluoromethyl)-5,6-dihydrobenzo[f][1,2,4]triazolo[4,3-d][1,4]oxazepin-8-yl)picolinamide]
4.1	Cc1cc(F)c(C(=O)Nc2cccc3c2O[C@H](C)Cn2cnnc2-3)cc1-n1cnc(C2CC2)c1 [Example 34, (R)-5-(4-cyclopropyl-1H-imidazol-1-yl)-2-fluoro-4-methyl-N-(6-methyl-5,6-dihydrobenzo[f][1,2,4]triazolo[4,3-d][1,4]oxazepin-8-yl)benzamide]
2.5	Cc1cc(F)c(C(=O)Nc2cccc3c2O[C@@H](C)Cn2cnnc2-3)cc1-n1cnc(C2CC2)c1 [Example 35, (S)-5-(4-cyclopropyl-1H-imidazol-1-yl)-2-fluoro-4-methyl-N-(6-methyl-5,6-dihydrobenzo[f][1,2,4]triazolo[4,3-d][1,4]oxazepin-8-yl)benzamide]
0.5	CC1(C)COc2c(NC(=O)c3cc(-n4cnc(C5CC5)c4)c(N4CCOCC4)cn3)cccc2-c2nnnn21 [Example 37, 4-(4-cyclopropyl-1H-imidazol-1-yl)-N-(5,5-dimethyl-5,6-dihydrobenzo[f]tetrazolo[1,5-d][1,4]oxazepin-8-yl)-5-morpholinopicolinamide]
0.6	C[C@H]1COc2c(NC(=O)c3cc(-n4cnc(C5CC5)c4)c(N4CCOCC4)cn3)cccc2-c2nncn21 [Example 38, (S)-4-(4-cyclopropyl-1H-imidazol-1-yl)-N-(5-methyl-5,6-dihydrobenzo[f][1,2,4]triazolo[4,3-d][1,4]oxazepin-8-yl)-5-morpholinopicolinamide]
0.5	Cc1cc(F)c(C(=O)Nc2cccc3c2OCCn2nncc2-3)cc1-n1cnc(C2CC2)c1 [Example 40, 5-(4-cyclopropyl-1H-imidazol-1-yl)-N-(5,6-dihydrobenzo[f][1,2,3]triazolo[1,5-d][1,4]oxazepin-8-yl)-2-fluoro-4-methylbenzamide]
0.9	Cc1cc(F)c(C(=O)Nc2cccc3c2O[C@H](C)Cn2nnnc2-3)cc1-n1cnc(C2CC2)c1 [Example 43, (R)-5-(4-cyclopropyl-1H-imidazol-1-yl)-2-fluoro-4-methyl-N-(6-methyl-5,6-dihydrobenzo[f]tetrazolo[1,5-d][1,4]oxazepin-8-yl)benzamide]
3.9	O=C(Nc1cccc2c1OCCn1nnnc1-2)c1cc(-n2cnc(C3CC3)c2)ccn1 [Example 50, 4-(4-cyclopropyl-1H-imidazol-1-yl)-N-(5,6-dihydrobenzo[f]tetrazolo[1,5-d][1,4]oxazepin-8-yl)picolinamide]
2.1	C[C@@H]1CN(c2cnc(C(=O)Nc3cccc4c3OCCn3nnnc3-4)cc2-n2cnc(C3CC3)c2)CCO1 [Example 55, (R)-4-(4-cyclopropyl-1H-imidazol-1-yl)-N-(5,6-dihydrobenzo[f]tetrazolo[1,5-d][1,4]oxazepin-8-yl)-5-(2-methylmorpholino)picolinamide]
4.7	O=C(Nc1cccc2c1OCCn1nnnc1-2)c1cc(-n2cnc(C3CC3)c2)c(N2CC[C@@H](O)C2)cn1 [Example 57, (R)-4-(4-cyclopropyl-1H-imidazol-1-yl)-N-(5,6-dihydrobenzo[f]tetrazolo[1,5-d][1,4]oxazepin-8-yl)-5-(3-hydroxypyrrolidin-1-yl)picolinamide]
